Drawing on patent US11724981B2, “Cationic surfactants comprising an ether link” (Battelle Memorial Institute, priority 2018, dated 2023), this text covers LC50 for 1 compound.

The data set in a line: Aquatic toxicity according to Method 2007. The following applies: in vivo, Mysidopsis Bahia. The source says: (References: OECD Guideline for the Testing of Chemicals: BG1Luc Estrogen Receptor Transactivation Test Method for Identifying Estrogen Receptor Agonists and Antagonists, OECD Guidelines for the Testing of Chemicals, Section 4, OECD Publishing, Paris, https://doi.org/10.1787/9789264185395-en, and http://ntp.niehs.nih.gov/ntp/about_ntp/sacatm/2012/september/d_draft_oecdtg457bg1luc_508.pdf; and G. Bittner, M. Denison, C. Yang, M. Stoner and G. He, Environmental Health 2014, 13 103). They were also tested for aquatic toxicity according to Method 2007 using Mysidopsis Bahia.

Usually LC50 stands for the concentration that kills 50% of the test population. Compound `CCCCCCCCCCCCCCCC[N+](C)(C)C` [CTAB, cetyl trimethyl ammonium bromide] showed an LC50 at 96 h of 0.2 µg/mL.
